The conditions of data set [1]: cited from earlier work.
The test system of data set [2] is S. aureus bacteria. Briefly: zone of inhibition of extract solutions on agar culture plate. The class given is cell-based. On the procedure: A nonwoven rayon gauze material (SofWick, a commercially available rayon gauze material manufactured by Johnson & Johnson) was graft polymerized with diallyldimethylammonium chloride (DADAMC) to 10 weight % poly(DADMAC), to form the cationic cellulose surface. Each gauze substrate treated in this manner measured approximately 40 square inches. One gram samples of cationic cellulose prepared in this manner (sample K), and untreated SofWick (sample L) were each soaked overnight in 25 ml of 0.5% SP solution. Samples were removed and squeezed to remove excess liquid. Samples were then washed in 25 mL of distilled water for one hour with agitation, and then squeezed to remove excess liquid. Each sample was subjected to four sequential extractions using 25 mL of distilled water for one hour at room temperature with agitation. Samples were squeezed to remove excess solution between extraction cycles. A fifth extraction was performed using pH 7.4 phosphate buffered saline (PBS). Saline is expected to remove a greater amount of pyrithione due to ion exchange. The extract solutions were tested for antimicrobial activity by placing single 20 microliter drops of the solutions at marked locations on an agar culture plate spread with ~3×10^3 CFU (continuous lawn) of S. aureus bacteria. Plates were incubated overnight at 37° C., and the diameter of the “zone of inhibition”, or “ZOI” was measured. […]

With `[Na+].[O-][n+]1ccccc1[S-]` [SP, sodium pyrithione], in data set [1] (aqueous), the “water solubility (aqueous solutions possible)” value was greater than 50 wt %. In addition, the ZOI came to 12 mm in data set [2] (0.01% SP control solution) and 26 mm in data set [2] (0.1% SP control solution).

Take Zinc pyrithione: the “max. solubility in water” value in data set [1] (water) is 0.0015%.

(Values after patent publication US8007921B2, “Gypsum board containing antimicrobial and antibacterial compounds” (Quick-Med Technologies, Inc., priority 2003, dated 2011).)
